Experimental data from patent US10821195B2, “Compositions for therapeutics, targeted PET imaging and methods of their use” (Memorial Sloan Kettering Cancer Center, priority 2015, dated 2020).

Assays:
[1] = Biodistribution of ^177Lu-HOPO and ^177Lu-DOTA in healthy female nude mice; assay type: in vivo
Experimental: Therefore, healthy female nude mice were injected with each of the complexes in order to determine their relative in vivo stabilities. The results are tabulated in Table 3 and are shown as graphs in FIG. 21A, FIG. 21B and FIG. 22.
Aliquots of the injectate (10 μL) were weighed and counted as standards with the tissues. The injection syringes were weighed pre- and post-injection to determine the weight of injectate and the activity according to the dose calibrator was measured before and after injection. All of the tissues were weighed and counted with the standards. The standards were used to obtain the counts/g injectate, the weights of the injectate were used to determine the total number of counts for the injected dose (ID), the counts of the tissue were used to get the % ID, and the weights of the tissues were used to obtain the % ID/g. Standard averaging and standard deviation calculations were applied.

[2] = Metal ion challenge of ^177Lu-HOPO and ^177Lu-DOTA; assay type: physicochemical; conditions: 10-fold excess Cu^2+, Fe^3+, Ga^3+, Gd^3+, 6 d
Experimental: The incubations were performed at 37° C. in a thermomixer over the course of 6 d and analyzed by radioTLC using C-18 TLC plates developed with 50 mM DTPA at 1, 3, and 6 d.

[3] = Hydroxyapatite stability (competition); assay type: physicochemical; conditions: after 6 d, 37° C.
Experimental: Additionally, each day the mixtures were vortexed to ensure proper mixing. At the respective time point, the aliquot was vortexed, centrifuged, vortexed, filtered (0.45 μm, 13 mm, nylon syringe filter, Fisher Scientific, Waltham, Mass.), and the filter washed with 1 mL of 50:50 EtOH in water. The filter (bound to hydroxyapatite), reaction tube, and filtrate (bound to the chelator) were counted separately on a gamma counter to determine the amount of activity in each.

Log D7.4 in octanol/PBS = assay type: physicochemical

O=C([O-])CN1CCN(CC(=O)[O-])CCN(CC(=O)[O-])CCN(CC(=O)[O-])CC1.[177Lu+3].[H+] [^177Lu-DOTA]
Blood/Bone ratio ([1]; 0.5 h): 5 ± 2 | Kidney/Bone ratio ([1]; 0.5 h): 13 ± 7 | L. Intestine/Bone ratio ([1]; 0.5 h): 0.6 ± 0.3 | Liver/Bone ratio ([1]; 0.5 h): 2.2 ± 0.7 | Muscle/Bone ratio ([1]; 0.5 h): 0.9 ± 0.5 | S. Intestine/Bone ratio ([1]; 0.5 h): 1.6 ± 0.6 | biodistribution Bladder ([1]; 0.5 h): 0.691 ± 0.116 % ID/g | biodistribution Blood ([1]; 0.5 h): 0.407 ± 0.179 % ID/g | biodistribution Bone ([1]; 0.5 h): 0.090 ± 0.026 % ID/g | biodistribution Heart ([1]; 0.5 h): 0.142 ± 0.069 % ID/g | biodistribution Kidneys ([1]; 0.5 h): 1.121 ± 0.490 % ID/g | biodistribution L. Intestine ([1]; 0.5 h): 0.056 ± 0.025 % ID/g | biodistribution Liver ([1]; 0.5 h): 0.199 ± 0.033 % ID/g | biodistribution Lungs ([1]; 0.5 h): 0.298 ± 0.131 % ID/g | biodistribution Muscle ([1]; 0.5 h): 0.085 ± 0.037 % ID/g | biodistribution Pancreas ([1]; 0.5 h): 0.080 ± 0.037 % ID/g | biodistribution S. Intestine ([1]; 0.5 h): 0.142 ± 0.038 % ID/g | biodistribution Spleen ([1]; 0.5 h): 0.103 ± 0.019 % ID/g | biodistribution Stomach ([1]; 0.5 h): 0.120 ± 0.035 % ID/g | Blood/Bone ratio ([1]; 1 h): 0.6 ± 0.4 | Kidney/Bone ratio ([1]; 1 h): 30 ± 30 | L. Intestine/Bone ratio ([1]; 1 h): 0.26 ± 0.19 | Liver/Bone ratio ([1]; 1 h): 2.3 ± 1.7 | Muscle/Bone ratio ([1]; 1 h): 0.4 ± 0.4 | S. Intestine/Bone ratio ([1]; 1 h): 1.5 ± 1.1 | biodistribution Bladder ([1]; 1 h): 0.2962 ± 0.1869 % ID/g | biodistribution Blood ([1]; 1 h): 0.0287 ± 0.0038 % ID/g | biodistribution Bone ([1]; 1 h): 0.0491 ± 0.0349 % ID/g | biodistribution Heart ([1]; 1 h): 0.0142 ± 0.0016 % ID/g | biodistribution Kidneys ([1]; 1 h): 1.4402 ± 1.2901 % ID/g | biodistribution L. Intestine ([1]; 1 h): 0.0129 ± 0.0015 % ID/g | biodistribution Liver ([1]; 1 h): 0.1121 ± 0.0174 % ID/g | biodistribution Lungs ([1]; 1 h): 0.0444 ± 0.0175 % ID/g | biodistribution Muscle ([1]; 1 h): 0.0219 ± 0.0154 % ID/g | biodistribution Pancreas ([1]; 1 h): 0.0143 ± 0.0050 % ID/g | biodistribution S. Intestine ([1]; 1 h): 0.0722 ± 0.0209 % ID/g | biodistribution Spleen ([1]; 1 h): 0.0410 ± 0.0100 % ID/g | biodistribution Stomach ([1]; 1 h): 0.0230 ± 0.0174 % ID/g | Blood/Bone ratio ([1]; 4 h): 0.18 ± 0.06 | Kidney/Bone ratio ([1]; 4 h): 40 ± 30 | L. Intestine/Bone ratio ([1]; 4 h): 6 ± 7 | Liver/Bone ratio ([1]; 4 h): 10 ± 4 | Muscle/Bone ratio ([1]; 4 h): 0.74 ± 0.15 | S. Intestine/Bone ratio ([1]; 4 h): 3 ± 3 | biodistribution Bladder ([1]; 4 h): 0.1088 ± 0.0148 % ID/g | biodistribution Blood ([1]; 4 h): 0.0011 ± 0.0003 % ID/g | biodistribution Bone ([1]; 4 h): 0.0060 ± 0.0007 % ID/g | biodistribution Heart ([1]; 4 h): 0.0052 ± 0.0016 % ID/g | biodistribution Kidneys ([1]; 4 h): 0.2398 ± 0.1571 % ID/g | biodistribution L. Intestine ([1]; 4 h): 0.0361 ± 0.0403 % ID/g | biodistribution Liver ([1]; 4 h): 0.0614 ± 0.0205 % ID/g | biodistribution Lungs ([1]; 4 h): 0.0080 ± 0.0044 % ID/g | biodistribution Muscle ([1]; 4 h): 0.0044 ± 0.0007 % ID/g | biodistribution Pancreas ([1]; 4 h): 0.0068 ± 0.0038 % ID/g | biodistribution S. Intestine ([1]; 4 h): 0.0209 ± 0.0180 % ID/g | biodistribution Spleen ([1]; 4 h): 0.0249 ± 0.0009 % ID/g | biodistribution Stomach ([1]; 4 h): 0.0038 ± 0.0026 % ID/g | Blood/Bone ratio ([1]; 1 d): 0.04 ± 0.02 | Kidney/Bone ratio ([1]; 1 d): 46 ± 12 | L. Intestine/Bone ratio ([1]; 1 d): 10 ± 7 | Liver/Bone ratio ([1]; 1 d): 7.6 ± 1.6 | Muscle/Bone ratio ([1]; 1 d): 0.6 ± 0.3 | S. Intestine/Bone ratio ([1]; 1 d): 4 ± 3 | biodistribution Bladder ([1]; 1 d): 0.1599 ± 0.07394 % ID/g | biodistribution Blood ([1]; 1 d): 0.0002 ± 0.00011 % ID/g | biodistribution Bone ([1]; 1 d): 0.00484 ± 0.00076 % ID/g | biodistribution Heart ([1]; 1 d): 0.0027 ± 0.00067 % ID/g | biodistribution Kidneys ([1]; 1 d): 0.2226 ± 0.04562 % ID/g | biodistribution L. Intestine ([1]; 1 d): 0.05022 ± 0.03098 % ID/g | biodistribution Liver ([1]; 1 d): 0.0369 ± 0.00538 % ID/g | biodistribution Lungs ([1]; 1 d): 0.0041 ± 0.00192 % ID/g | biodistribution Muscle ([1]; 1 d): 0.00281 ± 0.00151 % ID/g | biodistribution Pancreas ([1]; 1 d): 0.00337 ± 0.00062 % ID/g | biodistribution S. Intestine ([1]; 1 d): 0.02037 ± 0.01362 % ID/g | biodistribution Spleen ([1]; 1 d): 0.02143 ± 0.00625 % ID/g | biodistribution Stomach ([1]; 1 d): 0.00294 ± 0.00146 % ID/g | Blood/Bone ratio ([1]; 6 d): 0.007 ± 0.015 | Carcass/Bone ratio ([1]; 6 d): 0.60 ± 0.17 | Kidney/Bone ratio ([1]; 6 d): 10 ± 4 | L. Intestine/Bone ratio ([1]; 6 d): 0.34 ± 0.10 | Liver/Bone ratio ([1]; 6 d): 4.2 ± 1.2 | Muscle/Bone ratio ([1]; 6 d): 0.16 ± 0.12 | S. Intestine/Bone ratio ([1]; 6 d): 0.24 ± 0.07 | biodistribution Bladder ([1]; 6 d): 0.1186 ± 0.05899 % ID/g | biodistribution Blood ([1]; 6 d): 0.00003 ± 0.00006 % ID/g | biodistribution Bone ([1]; 6 d): 0.00412 ± 0.00104 % ID/g | biodistribution Carcass ([1]; 6 d): 0.0025 ± 0.0003 % ID/g | biodistribution Heart ([1]; 6 d): 0.00158 ± 0.00062 % ID/g | biodistribution Kidneys ([1]; 6 d): 0.04311 ± 0.01362 % ID/g | biodistribution L. Intestine ([1]; 6 d): 0.0014 ± 0.00017 % ID/g | biodistribution Liver ([1]; 6 d): 0.01724 ± 0.00259 % ID/g | biodistribution Lungs ([1]; 6 d): 0.00142 ± 0.00102 % ID/g | biodistribution Muscle ([1]; 6 d): 0.00067 ± 0.00046 % ID/g | biodistribution Pancreas ([1]; 6 d): 0.0012 ± 0.00048 % ID/g | biodistribution S. Intestine ([1]; 6 d): 0.001 ± 0.00011 % ID/g | biodistribution Spleen ([1]; 6 d): 0.01313 ± 0.00408 % ID/g | biodistribution Stomach ([1]; 6 d): 0.00045 ± 0.00010 % ID/g | biodistribution Bone ([1]; 6 d, listed as Lu-DOTA): 0.004±0.001 % ID/g | residual activity in all tissues and carcass ([1]; 6 d p.i.): 0.092±0.009 % ID | residual activity in carcass ([1]; 6 d p.i.): 0.044±0.004 % ID | clearance pathway ([1]; healthy female nude mice): excreted mostly via the renal-urinary clearance pathway | stability to transmetallation [2]: stable to transmetallation with all of the metals investigated in this study | complex intact in hydroxyapatite competition [3]: > 98% | Log D7.4 (Log D7.4 in octanol/PBS): −4.1±0.4
